In data set [1] the test system is carotid artery thrombus formation. Put plainly: In vivo carotid artery thrombosis model (FeCl3 induced injury). Particulars: 1% supplemented diet for 11 days. Further details: species or system C57BL/6J mice.
Method: Conventional mice (female, 10 weeks old, C57BL/6J, 10 per treatment group) were placed on chemically defined diets for 11 days. Mice were assessed for in vivo thrombosis potential with the common carotid injury model by application of 10% FeCl3 for 1 min (11, 38). […] The left carotid artery was exposed and injured by placing a FeCl3 soaked filter paper for one minute. […] Time to cessation of blood flow was determined by visual inspection of computer images of the thrombosis process from 30 seconds to 30 minutes by investigators blinded to mouse treatment group.
The conditions of data set [2]: female, C57BL/6J, mouse, in vivo.
Method: Stable isotope dilution LC/MS/MS was used for quantification of TML, TMAO, TMA, lysine, γ-butyrobetaine and carnitine similar to that described previously (1, 8, 9, 15). For TML standard curves, varying levels of TML were spiked into 20 μl control plasma followed by precipitation with 80 μl methanol containing 0.8 nmol d9-TML. Supernatant was loaded for LC/MS/MS analysis. Analyses were performed using electrospray ionization in positive-ion mode with multiple reaction monitoring of parent and characteristic daughter ions and retention times specific for components monitored. The transitions monitored for TML were mass-to-charge ratio (m/z): m/z 189.1→84.1, 189.1→60.1, and 189.1→130.1. The internal standards (e.g., d9-trimethyl-TML, d9-trimethyl-TMAO) were added to plasma before protein precipitation. Various concentrations of analytes and a fixed amount of internal standards were spiked into control plasma to prepare the calibration curves for quantification of plasma analytes. Their concentrations in human and mouse plasma samples were determined by high-performance liquid chromatography with a Shimadzu 8050 triple quadrupole mass spectrometer interfaced to a Shimadzu Nexera Ultra High Performance Liquid Chromatograph (UHPLC) system.
Conventional mice (female, 10 weeks old, C57BL/6J, 10 per treatment group) were placed on chemically defined diets for 11 days.
For data set [3] the following is noted: reference (19); cited from earlier work.
For data set [4], the system named is human fecal commensals (omnivores and vegans). In words: Gut microbial TMA lyase activity assay, d9-TMA production in human polymicrobial fecal anaerobic cultures. The class given is in vitro ADME. On the procedure: (§1) TMA lyase activity was monitored by quantifying d9-TMA production from d9(trimethyl) labeled potential nutrient precursors by stable isotope dilution LC/MS/MS analysis. Briefly, TMA lyase activity was typically quantified by incubating the indicated enzyme source (C57BL/6J female mouse intestine segments or human feces from healthy vegans/vegetarians and omnivores). Reactions were initiated by the addition of d9-labeled substrates (d9-TML, d9-carnitine or d9-choline) incubated under anaerobic conditions. Following 20 hours incubation at 37° C., reactions were halted, [^13C3,^15N]-TMA (Sigma Chemicals, St. Louis, MO) in 0.2 N formic acid was added as an internal standard, followed by immediate extraction of TMA isotopologues into the organic layer produced following mixing with successive additions of 2 ml hexane, 1 ml butanol and 0.2 ml 1N NaOH (to deprotonate the TMA isotopologues). Mixtures were then vortexed, centrifuged, and the upper hexane layer was transferred to a 12×75 mm PTFE capped threaded glass tube, acidified with the addition of 200 μl of 0.2 N formic acid, vortexed and the organic and aqueous layers were separated by centrifugation. The now protonated TMA isotopologues were recovered in the aqueous phase for quantitation by stable isotope dilution LC/MS/MS analysis. Sample aliquots were injected onto a reverse phase C18 HPLC column (2.0×150 mm, 5 μm, Phenomenex Prodigy (Phenomenex)) eluted at a flow rate of 0.2 ml/min and resolved using a linear gradient between 0.2% formic acid in water and 0.2% formic acid in acetonitrile/methanol (95:5, v/v). HPLC column effluent was introduced into an AB Sciex 5500 QTRAP mass spectrometer using electrospray ionization in the positive-ion mode. Both d9-TMA and [^13C3,^15N]TMA were monitored using multiple reaction monitoring of parent and characteristic daughter ions: m/z 69→49 for d9-TMA; and m/z 64→47 for [^13C3,^15N]TMA. Reactions without microbial enzyme source (tissues, cells, cell lysates, or isolated proteins) were used as blank.
(§2) Human feces and all bacteria including individual strain and fresh combined 68 strains were grown with 100 μM d9-TML or d9-choline (as a positive control) in complex reduced medium in a Coy anaerobic chamber (5% H2, 20% CO2, and 75% N2, 37° C.) for 0-4 days as previously described (27). The reaction was stopped by adding 6N HCl to samples (1:100 dilution to 60 mM final), and freezing at −80° C. until d9-TMA extraction and analysis by LC-MS/MS, as described in Methods above.

A short description of data set [5]: Oral (gastric gavage) d9-TML or d9-choline isotope tracer challenge, serial plasma levels by LC/MS/MS. As for the experimental part:
Supernatant was loaded for LC/MS/MS analysis.
Whole blood (50 μl) was collected via the saphenous vein from C57BL/6J (Jackson #0664) female mice prior to gavage for the measurement of baseline analyte levels. Mice were administered an oral dose of stable isotope-labelled TML or choline. The gastric gavage consisted of 150 μl of either 150 mM synthetic d9-TML or 150 mM choline-N,N,N-trimethyl-d9 (d9-choline, Cambridge Isotope Lab), followed by post-gavage blood collection at the indicated times. Where indicated, gut microbiota were suppressed in mice by placement of a cocktail of poorly absorbed antibiotics in drinking water for 3 weeks prior to the d9-TML challenge, as previously described (1, 19). Quantification of the abundance of native and isotope-labeled forms of TML, TMA and TMAO in mouse plasma was performed using stable-isotope-dilution LC-MS/MS using established methods for TMA and TML (19), and using the parent daughter ion transitions for TML and its internal standard as described above. In additional studies, the role of gut microbiota in TMAO formation from dietary TML was determined in C57BL/6J mice by performance of oral (gavage) d9-TML challenge. Mice were housed in conventional cages in the absence or presence of a cocktail of broad spectrum antibiotics added to the drinking water previously shown to suppress gut microbiota (1,19).

In data set [6] the test system is cutC/D, yeaX/W, or cntA/B microbial TMA generating enzyme systems. Put plainly: Recombinant microbial TMA lyases expressed in E. coli, d9-TMA production from d9-labeled substrates. The class given is biochemical. To be noted: E. coli transformed with cutC/D.
Data set [7] relates to panel of 68 culturable human commensals. In words: In vitro screening for the conversion of d9-TML to d9-TMA by culturable human commensals. The class given is in vitro ADME, human gut bacteria. On the procedure: as §2
Data set [8] relates to mouse cecal, colonic and small bowel microbiota. In words: Gut microbial TMA lyase activity assay, d9-TMA production in anaerobic cultures of mouse intestine segments. On the procedure:
as §1

The mark [9] stands for this setting: conventionally reared C57BL/6J mice, gastric gavage 150 μl of 150 mM.
The mark [10] stands for this setting: anaerobic culture, 20 hours, 37° C.

Each structure is given as a SMILES string.

For the compound `C[N+](C)(C)CCCC[C@H](N)C(=O)O` [TML, N6-trimethyl-lysine], the “in vivo thrombosis potential (thrombus formation rate, time to cessation of blood flow)” value in data set [1] is on record as “failed to significantly change”. In addition, in data set [2], the “plasma level of TMAO after 11 days of the indicated diet” value was 4.5 ± 2.1 µM and the “plasma level of TML after 11 days of the indicated diet” value was 37.0 ± 15.5 µM. Besides, in data set [2] (11 days), the “increase in plasma TML levels” value was ~100 fold.

Regarding `C[N+](C)(C)CC(=O)O` [betaine], the “rate as TMA nutrient precursor, less than choline” value in data set [3] was “about 100 fold”.

As to `C[N+](C)(C)CCO` [choline], in data set [2], the “plasma level of TMAO after 11 days of the indicated diet” value stood at 90.6 ± 55.1 µM and the “plasma level of TML after 11 days of the indicated diet” value stood at 0.8 ± 0.4 µM. The “rise of plasma TMAO levels” value in data set [2] (11 days) was ~20 fold.

Turning to `[2H]C([2H])([2H])[N+](CCCCC(N)C(=O)O)(C([2H])([2H])[2H])C([2H])([2H])[2H]` (stereo not shown) [d9-TML, [d9-N, N, N-trimethyl] lysine], the “d9-TML to d9-TMA transformation, feces of omnivores versus vegans” value in data set [4] (P<0.04) was “significantly greater activity than vegans”. Further, in data set [4] (omnivores and vegans, anaerobic), the “overall level of TMA generation from TML in human fecal cultures” value is “relatively low”. In addition, in data set [5] (3 weeks cocktail of poorly absorbed broad-spectrum antibiotics), the “plasma d9-TMAO following d9-TML oral gavage in mice treated with oral antibiotics” value was “no detectable”. Also, the “impact of pretreatment with oral antibiotics on plasma d9-TML levels following oral gavage” value in data set [5] (P=0.87) is “no impact”. Besides, in data set [5] (setting [9]), the “plasma level of d9-TMA following oral d9-TML gavage” value is reported as “rose only minimally” and the “plasma level of d9-TMAO following oral d9-TML gavage” value was “rose only minimally”. For the same compound, the “time to increase in plasma d9-TML level following ingestion” value in data set [5] (oral gavage, C57BL/6J mice) is ≤ 1 h. Besides, the “conversion into d9-TMA by recombinant microbial TMA generating enzyme systems” value in data set [6] is reported as “none of the known recombinant microbial TMA generating enzyme systems examined supported d9-TML conversion into d9-TMA”. In data set [7] (anaerobic, 100 μM), the “conversion of d9-TML to d9-TMA by eighteen individual members of the human commensal library” value was “none of these species significantly promoted conversion”. For the same compound, in data set [7] (prolonged (4 days) incubation, assay limit of detection ~1 nM), the “d9-TML to d9-TMA transformation by pool of all 68 species” value is “virtually no detectable”. Further, in data set [8] (setting [10]), the “d9-TMA formation by small bowel microbes” value is “significantly lower but detectable levels”; the “d9-TMA generation by microbes from cecal and colonic segments” value is listed as “generated d9-TMA”.

On to `[2H]C(O)(CC(=O)[O-])C([2H])([2H])[N+](C)(C([2H])([2H])[2H])C([2H])([2H])[2H]` (stereo not shown) [d9-carnitine], for which, in data set [4], the “d9-TMA formed in vegan fecal cultures compared with d9-TML” value is “comparable degree” and the “production of d9-TMA in polymicrobial fecal cultures from omnivores, greater” value is > 100 fold. Moreover, the “synthetic capacity of cecal microbiota to generate d9-TMA, higher than that observed with d9-TML” value in data set [8] came out at 10 fold.

Regarding `[2H]C([2H])([2H])[N+](CCO)(C([2H])([2H])[2H])C([2H])([2H])[2H]` [d9-choline, choline-N,N,N-trimethyl-d9], the “d9-TMA conversion in human fecal cultures, greater than the levels produced from d9-TML” value in data set [4] is recorded as “approximately 3 orders of magnitude”. For the same compound, the “plasma level of isotope labeled precursor compared with d9-TML challenge” value in data set [5] (mouse, in vivo) is recorded as “substantially lower”. Further, in data set [5] (mouse, in vivo, po), the “peak plasma level of d9-TMA, higher than after the same molar amount of oral d9-TML” value is 30-50 fold and the “peak plasma level of d9-TMAO, higher than after the same molar amount of oral d9-TML” value is on record as 30-50 fold. For the same compound, the “synthetic capacity of cecal microbiota to generate d9-TMA, higher than that observed with d9-TML” value in data set [8] was 1000 fold.

These data come from US12576055B2, “Disease detection and treatment based on trimethyl-lysine levels” (The Cleveland Clinic Foundation, priority 2018, dated 2026).
